Measured values from US20200060276A1, “THIAZOLE COMPOUND AND HERBICIDE” (OAT Agrio Co., Ltd., priority 2017, published 2020).

Assays:
Type in all cases: in vivo
Cyperus microiria = assay: Test for Herbicidal Effect in Flooding Treatment (#1), CYMIC; details: flooding treatment at seeding, dose 2 kg/ha, visual observation on day 21
Experimental: (#1) Test for Herbicidal Effect in Flooding Treatment: Styrol cups each having an opening diameter of 8 cm (about 52 cm^2) were respectively filled with soil (45 ml) which had been passed through a sieve (2 mm). Water (about 115 ml) was mixed with the soil such that the soil was flooded. After the soil stood still for 24 hours, Monochoria vaginalis, Echinochloa crus-galli (L.) P. Beauv. var. formosensis Ohwi, Cyperus difformis (umbrella sedge), and Scirpus juncoides were seeded. Each of the compounds of the present invention was dissolved in acetone, and the obtained product was then diluted with water containing Tween 80®. Each of the resultant chemical solutions was dropped on the entire surface of an associated one of treatment sections, so that each section was treated with 1 ml of the respective chemical solution (a dose of 2 kg/ha). After the treatment, the plants were grown in a glasshouse. On day 21, a survey was conducted on the herbicidal activity by visual observation, and evaluation was made according to the following criteria. 0: Growth inhibition effect is less than 10%. 1: Growth inhibition effect is equal to or greater than 10%, and less than 30%. 2; Growth inhibition effect is equal to or greater than 30%, and less than 50%. 3: Growth inhibition effect equal to or greater than 50%, and less than 70%. 4: Growth inhibition effect is equal to or greater than 70%, and less than 90%. 5: Growth inhibition effect is equal to or greater than 90%, or complete withering is achieved. ECHDG=Echinochloa crus-galli (L.) P. Beauv. var. formosensis Ohwi, MONVA=Monochoria vaginalis, SCIJU=Scirpus juncoides, CYMIC=Cyperus microiria.

[1] = test system: Echinochloa crus-galli (L.) P. Beauv. var. formosensis Ohwi; assay: Test for Herbicidal Effect in Flooding Treatment (#1), ECHDG; details: flooding treatment at seeding, dose 2 kg/ha, visual observation on day 21
Method in brief: (§1)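 Visual scores from 0 (<10% inhibition) to 5 (≥90% or complete withering) were taken 21 days after treatment of glasshouse-grown plants. Seeds were sown in soil flooded for 24 h beforehand, and compound was applied dropwise onto the surface at 2 kg/ha as an acetone solution diluted in water with Tween 80.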

Scirpus juncoides = assay: Test for Herbicidal Effect in Flooding Treatment (#1), SCIJU; details: flooding treatment at seeding, dose 2 kg/ha, visual observation on day 21
Method in brief: as §1

[2] = test system: Echinochloa crus-galli (L.) P. Beauv. var. formosensis Ohwi; assay: Test for Herbicidal Effect in Flooding Treatment (#2), ECHDG at 2-2.5 leaf stage; details: flooding treatment at 2-2.5 leaf stage, dose 0.2 kg/ha, visual observation on day 21
Method in brief: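 Scoring is a visual 0–5 scale of growth inhibition (0 below 10%, 5 at 90% or more or full withering), taken 21 days after treatment in a glasshouse. Dose was 0.2 kg/ha, applied as acetone/Tween 80 aqueous solution onto flooded soil once seedlings reached the 2–2.5 leaf stage.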

O=S(=O)(Cc1cccc(OC(F)F)c1)c1ncc(Cl)s1 [Compound 1C-84] was tested, and the “CYMIC #1 herbicidal effect (growth inhibition grade)” value (Cyperus microiria) was 5 (Growth inhibition effect is equal to or greater than 90%, or complete withering is achieved), the “ECHDG #1 herbicidal effect (growth inhibition grade)” value [1] was 5 (Growth inhibition effect is equal to or greater than 90%, or complete withering is achieved) and the “SCIJU #1 herbicidal effect (growth inhibition grade)” value (Scirpus juncoides) was 5 (Growth inhibition effect is equal to or greater than 90%, or complete withering is achieved). The “ECHDG (2-2.5L) #2 herbicidal effect (growth inhibition grade)” value [2] was 3 (Growth inhibition effect equal to or greater than 50%, and less than 70%).

O=S(=O)(Cc1cccc(OC(F)(F)F)c1)c1ncc(Cl)s1 [Compound 1C-85, 5-chloro-2-{[3-(trifluoromethoxy)phenyl][methanesulfonyl]}-1,3-thiazole] was tested, and the “CYMIC #1 herbicidal effect (growth inhibition grade)” value (Cyperus microiria) was 5 (Growth inhibition effect is equal to or greater than 90%, or complete withering is achieved), the “ECHDG #1 herbicidal effect (growth inhibition grade)” value [1] was 5 (Growth inhibition effect is equal to or greater than 90%, or complete withering is achieved) and the “SCIJU #1 herbicidal effect (growth inhibition grade)” value (Scirpus juncoides) was 5 (Growth inhibition effect is equal to or greater than 90%, or complete withering is achieved). The “ECHDG (2-2.5L) #2 herbicidal effect (growth inhibition grade)” value [2] was 1 (Growth inhibition effect is equal to or greater than 10%, and less than 30%).

For COc1ccc(CS(=O)(=O)c2ncc(Cl)s2)cc1 [Compound 1C-87], the “CYMIC #1 herbicidal effect (growth inhibition grade)” value (Cyperus microiria) was 5 (Growth inhibition effect is equal to or greater than 90%, or complete withering is achieved), the “ECHDG #1 herbicidal effect (growth inhibition grade)” value [1] was 5 (Growth inhibition effect is equal to or greater than 90%, or complete withering is achieved) and the “SCIJU #1 herbicidal effect (growth inhibition grade)” value (Scirpus juncoides) was 5 (Growth inhibition effect is equal to or greater than 90%, or complete withering is achieved). The “ECHDG (2-2.5L) #2 herbicidal effect (growth inhibition grade)” value [2] was 1 (Growth inhibition effect is equal to or greater than 10%, and less than 30%).

For COc1ccc(CS(=O)(=O)c2ncc(Cl)s2)cc1Cl [Compound 1C-89], the “CYMIC #1 herbicidal effect (growth inhibition grade)” value (Cyperus microiria) was 5 (Growth inhibition effect is equal to or greater than 90%, or complete withering is achieved), the “ECHDG #1 herbicidal effect (growth inhibition grade)” value [1] was 5 (Growth inhibition effect is equal to or greater than 90%, or complete withering is achieved) and the “SCIJU #1 herbicidal effect (growth inhibition grade)” value (Scirpus juncoides) was 5 (Growth inhibition effect is equal to or greater than 90%, or complete withering is achieved). The “ECHDG (2-2.5L) #2 herbicidal effect (growth inhibition grade)” value [2] was 3 (Growth inhibition effect equal to or greater than 50%, and less than 70%).

COc1cc(F)c(CS(=O)(=O)c2ncc(Cl)s2)c(F)c1 [Compound 1C-90] was tested, and the “CYMIC #1 herbicidal effect (growth inhibition grade)” value (Cyperus microiria) was 5 (Growth inhibition effect is equal to or greater than 90%, or complete withering is achieved), the “ECHDG #1 herbicidal effect (growth inhibition grade)” value [1] was 5 (Growth inhibition effect is equal to or greater than 90%, or complete withering is achieved) and the “SCIJU #1 herbicidal effect (growth inhibition grade)” value (Scirpus juncoides) was 5 (Growth inhibition effect is equal to or greater than 90%, or complete withering is achieved). For the same molecule, the “ECHDG (2-2.5L) #2 herbicidal effect (growth inhibition grade)” value [2] was 5 (Growth inhibition effect is equal to or greater than 90%, or complete withering is achieved).

With CCOc1ccc(CS(=O)(=O)c2ncc(Cl)s2)c(Cl)c1 [Compound 1C-92] the “CYMIC #1 herbicidal effect (growth inhibition grade)” value (Cyperus microiria) was 5 (Growth inhibition effect is equal to or greater than 90%, or complete withering is achieved), the “ECHDG #1 herbicidal effect (growth inhibition grade)” value [1] was 5 (Growth inhibition effect is equal to or greater than 90%, or complete withering is achieved) and the “SCIJU #1 herbicidal effect (growth inhibition grade)” value (Scirpus juncoides) was 5 (Growth inhibition effect is equal to or greater than 90%, or complete withering is achieved). The “ECHDG (2-2.5L) #2 herbicidal effect (growth inhibition grade)” value [2] was 5 (Growth inhibition effect is equal to or greater than 90%, or complete withering is achieved).

For CCOc1ccc(CS(=O)(=O)c2ncc(Cl)s2)cc1F [Compound 1C-95], the “CYMIC #1 herbicidal effect (growth inhibition grade)” value (Cyperus microiria) was 5 (Growth inhibition effect is equal to or greater than 90%, or complete withering is achieved), the “ECHDG #1 herbicidal effect (growth inhibition grade)” value [1] was 5 (Growth inhibition effect is equal to or greater than 90%, or complete withering is achieved) and the “SCIJU #1 herbicidal effect (growth inhibition grade)” value (Scirpus juncoides) was 5 (Growth inhibition effect is equal to or greater than 90%, or complete withering is achieved). For the same molecule, the “ECHDG (2-2.5L) #2 herbicidal effect (growth inhibition grade)” value [2] was 3 (Growth inhibition effect equal to or greater than 50%, and less than 70%).

With CCOc1ccc(CS(=O)(=O)c2ncc(Cl)s2)cc1Cl [Compound 1C-96] the “CYMIC #1 herbicidal effect (growth inhibition grade)” value (Cyperus microiria) was 5 (Growth inhibition effect is equal to or greater than 90%, or complete withering is achieved), the “ECHDG #1 herbicidal effect (growth inhibition grade)” value [1] was 5 (Growth inhibition effect is equal to or greater than 90%, or complete withering is achieved) and the “SCIJU #1 herbicidal effect (growth inhibition grade)” value (Scirpus juncoides) was 5 (Growth inhibition effect is equal to or greater than 90%, or complete withering is achieved). The “ECHDG (2-2.5L) #2 herbicidal effect (growth inhibition grade)” value [2] was 4 (Growth inhibition effect is equal to or greater than 70%, and less than 90%).

For CCOc1ccc(CS(=O)(=O)c2ncc(Cl)s2)cc1C [Compound 1C-97], the “CYMIC #1 herbicidal effect (growth inhibition grade)” value (Cyperus microiria) was 5 (Growth inhibition effect is equal to or greater than 90%, or complete withering is achieved), the “ECHDG #1 herbicidal effect (growth inhibition grade)” value [1] was 5 (Growth inhibition effect is equal to or greater than 90%, or complete withering is achieved) and the “SCIJU #1 herbicidal effect (growth inhibition grade)” value (Scirpus juncoides) was 5 (Growth inhibition effect is equal to or greater than 90%, or complete withering is achieved). The “ECHDG (2-2.5L) #2 herbicidal effect (growth inhibition grade)” value [2] was 3 (Growth inhibition effect equal to or greater than 50%, and less than 70%).

CCOc1cc(Cl)c(CS(=O)(=O)c2ncc(Cl)s2)cc1Cl [Compound 1C-102] was tested, and the “CYMIC #1 herbicidal effect (growth inhibition grade)” value (Cyperus microiria) was 5 (Growth inhibition effect is equal to or greater than 90%, or complete withering is achieved), the “ECHDG #1 herbicidal effect (growth inhibition grade)” value [1] was 5 (Growth inhibition effect is equal to or greater than 90%, or complete withering is achieved) and the “SCIJU #1 herbicidal effect (growth inhibition grade)” value (Scirpus juncoides) was 5 (Growth inhibition effect is equal to or greater than 90%, or complete withering is achieved). The “ECHDG (2-2.5L) #2 herbicidal effect (growth inhibition grade)” value [2] was 4 (Growth inhibition effect is equal to or greater than 70%, and less than 90%).

CCOc1cc(F)c(CS(=O)(=O)c2ncc(Cl)s2)c(F)c1 [Compound 1C-103] was tested, and the “CYMIC #1 herbicidal effect (growth inhibition grade)” value (Cyperus microiria) was 5 (Growth inhibition effect is equal to or greater than 90%, or complete withering is achieved), the “ECHDG #1 herbicidal effect (growth inhibition grade)” value [1] was 5 (Growth inhibition effect is equal to or greater than 90%, or complete withering is achieved) and the “SCIJU #1 herbicidal effect (growth inhibition grade)” value (Scirpus juncoides) was 5 (Growth inhibition effect is equal to or greater than 90%, or complete withering is achieved). For the same molecule, the “ECHDG (2-2.5L) #2 herbicidal effect (growth inhibition grade)” value [2] was 5 (Growth inhibition effect is equal to or greater than 90%, or complete withering is achieved).

In the case of CCOc1c(Cl)cc(CS(=O)(=O)c2ncc(Cl)s2)cc1Cl [Compound 1C-106], the “CYMIC #1 herbicidal effect (growth inhibition grade)” value (Cyperus microiria) is reported as 5 (Growth inhibition effect is equal to or greater than 90%, or complete withering is achieved), the “ECHDG #1 herbicidal effect (growth inhibition grade)” value [1] is reported as 5 (Growth inhibition effect is equal to or greater than 90%, or complete withering is achieved) and the “SCIJU #1 herbicidal effect (growth inhibition grade)” value (Scirpus juncoides) is reported as 5 (Growth inhibition effect is equal to or greater than 90%, or complete withering is achieved). The “ECHDG (2-2.5L) #2 herbicidal effect (growth inhibition grade)” value [2] was 3 (Growth inhibition effect equal to or greater than 50%, and less than 70%).

CCOc1c(C)cc(CS(=O)(=O)c2ncc(Cl)s2)cc1C [Compound 1C-107] was tested, and the “CYMIC #1 herbicidal effect (growth inhibition grade)” value (Cyperus microiria) was 5 (Growth inhibition effect is equal to or greater than 90%, or complete withering is achieved), the “ECHDG #1 herbicidal effect (growth inhibition grade)” value [1] was 5 (Growth inhibition effect is equal to or greater than 90%, or complete withering is achieved) and the “SCIJU #1 herbicidal effect (growth inhibition grade)” value (Scirpus juncoides) was 5 (Growth inhibition effect is equal to or greater than 90%, or complete withering is achieved). The “ECHDG (2-2.5L) #2 herbicidal effect (growth inhibition grade)” value [2] was 4 (Growth inhibition effect is equal to or greater than 70%, and less than 90%).

With CCOc1c(F)c(F)c(CS(=O)(=O)c2ncc(Cl)s2)c(F)c1F [Compound 1C-108] the “CYMIC #1 herbicidal effect (growth inhibition grade)” value (Cyperus microiria) was 5 (Growth inhibition effect is equal to or greater than 90%, or complete withering is achieved), the “ECHDG #1 herbicidal effect (growth inhibition grade)” value [1] was 5 (Growth inhibition effect is equal to or greater than 90%, or complete withering is achieved) and the “SCIJU #1 herbicidal effect (growth inhibition grade)” value (Scirpus juncoides) was 5 (Growth inhibition effect is equal to or greater than 90%, or complete withering is achieved). For the same molecule, the “ECHDG (2-2.5L) #2 herbicidal effect (growth inhibition grade)” value [2] was 5 (Growth inhibition effect is equal to or greater than 90%, or complete withering is achieved).
